Measured values taken from ChEMBL document CHEMBL1156824, “Physicochemical space for optimum oral bioavailability: contribution of human intestinal absorption and first-pass elimination” (J Med Chem, 2010).

Key:
[1] = clinical; conditions: human, in vivo
[2] = organism: Homo sapiens; assay: Hepatic clearance in human; conditions: in vivo
[3] = system: Homo sapiens; assay: Oral bioavailability in human; conditions: in vivo
[4] = organism: Homo sapiens; assay: Fraction escaping hepatic elimination in human; conditions: in vivo
[5] = Volume of distribution at steady state in human; conditions: in vivo
[6] = organism: Homo sapiens; assay: Fraction escaping gut-wall elimination in human; conditions: in vivo
[7] = organism: Homo sapiens; assay: Fraction absorbed in human; conditions: in vivo

SMILES | CL renal [1] | CL [2] | F_fraction [3] | Fh [4] | Vd [5] | Fg [6] | Fa [7]
CCCc1nc2c(C)cc(-c3nc4ccccc4n3C)cc2n1Cc1ccc(-c2ccccc2C(=O)O)cc1 | 0.1 mL/min/kg | 8.3 mL/min/kg | 0.43 |  |  |  | 
CC(C)(C)NC(=O)[C@@H]1C[C@@H]2CCCC[C@@H]2CN1C[C@@H](O)[C@H](Cc1ccccc1)NC(=O)[C@H](CC(N)=O)NC(=O)c1ccc2ccccc2n1 |  |  |  | 0.45 |  |  | 
CCCc1nc(C)c2c(=O)[nH]c(-c3cc(S(=O)(=O)N4CCN(CC)CC4)ccc3OCC)nn12 |  |  |  |  | 3 L/kg |  | 
CC(=O)Nc1ccc(O)cc1 [ACETAMINOPHEN] |  |  |  |  | 1 L/kg |  | 
CC(C)(C)NCC(O)c1ccc(O)c(CO)c1 (stereo not given) [ALBUTEROL] |  |  |  | 0.88 |  |  | 
Cc1nnc2n1-c1ccc(Cl)cc1C(c1ccccc1)=NC2 [ALPRAZOLAM] | 0.1 mL/min/kg | 0.6 mL/min/kg |  |  | 0.8 L/kg |  | 
CCCCc1oc2ccccc2c1C(=O)c1cc(I)c(OCCN(CC)CC)c(I)c1 [AMIODARONE] |  |  |  | 0.92 |  | 0.71 | 1
CCN1CCCC1CNC(=O)c1cc(S(=O)(=O)CC)c(N)cc1OC (stereo not given) [AMISULPRIDE] |  | 3.4 mL/min/kg |  |  | 5.8 L/kg |  | 
CC(C)NCC(O)COc1ccc(CC(N)=O)cc1 (stereo not given) [ATENOLOL] |  |  |  | 1 |  | 1 | 
CN1[C@@H]2CC[C@H]1C[C@@H](OC(=O)C(CO)c1ccccc1)C2 (stereo not given in full) [ATROPINE] |  |  |  | 0.86 |  | 0.59 | 0.98
CC[C@H]1OC(=O)[C@H](C)[C@@H](O[C@H]2C[C@@](C)(OC)[C@@H](O)[C@H](C)O2)[C@H](C)[C@@H](O[C@@H]2O[C@H](C)C[C@H](N(C)C)[C@H]2O)[C@](C)(O)C[C@@H](C)CN(C)[C@H](C)[C@@H](O)[C@]1(C)O [AZITHROMYCIN] | 0.5 mL/min/kg | 9.6 mL/min/kg | 0.34 |  |  |  | 
Nc1c(CC(=O)O)cccc1C(=O)c1ccc(Br)cc1 [BROMFENAC] | 0.0022 mL/min/kg | 1.3 mL/min/kg | 0.67 |  |  |  | 
C=CC1=C(C(=O)O)N2C(=O)[C@@H](NC(=O)/C(=N\OCC(=O)O)c3csc(N)n3)[C@H]2SC1 [CEFIXIME] | 0.4 mL/min/kg | 0.6 mL/min/kg | 0.47 |  |  |  | 
CC1=C(C(=O)O)N2C(=O)[C@@H](NC(=O)[C@H](N)c3ccccc3)[C@H]2SC1 [CEPHALEXIN ANHYDROUS] |  |  |  |  |  | 0.91 | 
CN/C(=N/CCSCc1nc[nH]c1C)NC#N [CIMETIDINE] |  | 0.2 mL/min/kg | 0.68 | 0.99 |  |  | 0.68
Nc1ccc(S(=O)(=O)c2ccc(N)cc2)cc1 [DAPSONE] |  | 0.4 mL/min/kg |  | 0.98 |  |  | 
CNCCCN1c2ccccc2CCc2ccccc21 [DESIPRAMINE] |  |  | 0.4 | 0.53 |  |  | 
O=C(O)Cc1ccccc1Nc1c(Cl)cccc1Cl [DICLOFENAC] | 0.035 mL/min/kg | 3.5 mL/min/kg |  | 0.85 |  |  | 
COc1ccc(C(=O)Nc2ccccc2CCC2CCCCN2C)cc1 (stereo not given) [ENCAINIDE] | 0.8 mL/min/kg | 12.2 mL/min/kg | 0.3 |  |  |  | 
CC[C@H]1OC(=O)[C@H](C)[C@@H](O[C@H]2C[C@@](C)(OC)[C@@H](O)[C@H](C)O2)[C@H](C)[C@@H](O[C@@H]2O[C@H](C)C[C@H](N(C)C)[C@H]2O)[C@](C)(O)C[C@@H](C)C(=O)[C@H](C)[C@@H](O)[C@]1(C)O [ERYTHROMYCIN] | 0.3 mL/min/kg | 5.3 mL/min/kg | 0.35 |  |  |  | 
O=C1NCC2(CCN(CCc3ccccc3)CC2)O1 [FENSPIRIDE] | 1.8 mL/min/kg | 0.8 mL/min/kg |  |  | 3 L/kg |  | 
CN1CCN(c2c(F)cc3c(=O)c(C(=O)O)cn(CCF)c3c2F)CC1 [FLEROXACIN] |  | 0.9 mL/min/kg |  |  | 1.3 L/kg |  | 
CC(C)n1c(/C=C/C(O)CC(O)CC(=O)O)c(-c2ccc(F)cc2)c2ccccc21 (stereo not given) [FLUVASTATIN] |  |  |  | 0.3 |  |  | 
O=C(O)P(=O)(O)O [FOSCARNET] |  | 0.4 mL/min/kg |  |  | 0.5 L/kg |  | 
Nc1nc(O)c2ncn(COC(CO)CO)c2n1 [GANCICLOVIR] |  | 0.5 mL/min/kg | 0.09 |  | 1 L/kg |  | 
O=[N+]([O-])O[C@@H]1CO[C@H]2[C@@H]1OC[C@@H]2O [ISOSORBIDE MONONITRATE] |  | 1.9 mL/min/kg |  |  | 0.7 L/kg |  | 

SMILES | CL renal [1] | CL [2] | F_fraction [3] | Fh [4] | Vd [5] | Fg [6] | Fa [7]
O=C(c1ccc(F)cc1)C1CCN(CCn2c(=O)[nH]c3ccccc3c2=O)CC1 [KETANSERIN] | 0.1 mL/min/kg | 6.6 mL/min/kg | 0.5 |  |  |  | 
Cc1c(OCC(F)(F)F)ccnc1C[S+]([O-])c1nc2ccccc2[nH]1 (stereo not given) [LANSOPRAZOLE] | 0.044 mL/min/kg | 4.4 mL/min/kg | 0.85 |  |  |  | 
CC[C@H](C)C(=O)O[C@H]1C[C@@H](C)C=C2C=C[C@H](C)[C@H](CC[C@@H]3C[C@@H](O)CC(=O)O3)[C@H]21 [LOVASTATIN] | 0.7 mL/min/kg | 6.5 mL/min/kg |  | 0.72 |  |  | 
CN(C)C(=N)N=C(N)N [METFORMIN] |  |  |  | 1 |  |  | 
Cc1ncc([N+](=O)[O-])n1CCO [METRONIDAZOLE] | 0.2 mL/min/kg | 0.7 mL/min/kg |  |  | 0.4 L/kg |  | 
CN(C)c1ccc(O)c2c1C[C@H]1C[C@H]3[C@H](N(C)C)C(O)=C(C(N)=O)C(=O)[C@@]3(O)C(O)=C1C2=O [MINOCYCLINE] | 0.1 mL/min/kg | 1.1 mL/min/kg | 1 |  |  |  | 
CCc1nn(CCCN2CCN(c3cccc(Cl)c3)CC2)c(=O)n1CCOc1ccccc1 [NEFAZODONE] | 0.4 mL/min/kg | 7.1 mL/min/kg | 0.19 |  |  |  | 
COC(=O)C1=C(C)NC(C)=C(C(=O)OCCN(C)Cc2ccccc2)C1c1cccc([N+](=O)[O-])c1 (stereo not given) [NICARDIPINE] |  |  |  |  | 1 L/kg |  | 
CNC(=C[N+](=O)[O-])NCCSCc1csc(CN(C)C)n1 [NIZATIDINE] |  | 2.5 mL/min/kg |  |  | 1 L/kg |  | 
CN1Cc2c(N)cccc2C(c2ccccc2)C1 (stereo not given) [NOMIFENSINE] |  | 9.5 mL/min/kg |  |  | 6 L/kg |  | 
O=C(O)c1cc(/N=N/c2ccc(O)c(C(=O)O)c2)ccc1O [OLSALAZINE] | 0.3 mL/min/kg | 0.9 mL/min/kg |  |  | 0.07 L/kg |  | 
COc1ccc2[nH]c([S+]([O-])Cc3ncc(C)c(OC)c3C)nc2c1 (stereo not given) [OMEPRAZOLE] | 0.1 mL/min/kg | 8.3 mL/min/kg | 0.53 |  |  |  | 
CCOc1ccccc1OC(c1ccccc1)C1CNCCO1 (stereo not given) [REBOXETINE] | 0.041 mL/min/kg | 0.8 mL/min/kg | 0.95 |  |  |  | 
CO[C@H]1/C=C/O[C@@]2(C)Oc3c(C)c(O)c4c(c3C2=O)C2=NC3(CCN(CC(C)C)CC3)NC2=C(NC(=O)/C(C)=C\C=C\[C@H](C)[C@H](O)[C@@H](C)[C@@H](O)[C@@H](C)[C@H](OC(C)=O)[C@@H]1C)C4=O [RIFABUTIN] |  | 2 mL/min/kg | 0.2 | 0.91 |  |  | 
Cc1nc2n(c(=O)c1CCN1CCC(c3noc4cc(F)ccc34)CC1)CCCC2 [RISPERIDONE] | 0.2 mL/min/kg |  | 0.66 |  |  |  | 
CN1[C@@H]2C[C@@H](OC(=O)[C@H](CO)c3ccccc3)C[C@H]1[C@@H]1O[C@@H]12 [SCOPOLAMINE] |  |  |  | 0.35 |  | 0.82 | 
CCN1CCCC1CNC(=O)c1cc(S(N)(=O)=O)ccc1OC (stereo not given) [SULPIRIDE] |  | 0.1 mL/min/kg | 0.27 |  | 2.72 L/kg |  | 
CC(C(=O)O)c1ccc(C(=O)c2cccs2)cc1 (stereo not given) [SUPROFEN] | 0.0357 mL/min/kg | 0.7 mL/min/kg |  |  | 0.04 L/kg |  | 
CCOc1ccccc1OCCN[C@H](C)Cc1ccc(OC)c(S(N)(=O)=O)c1 [TAMSULOSIN] | 0.1 mL/min/kg | 0.5 mL/min/kg | 1 |  |  |  | 
CCCCNC(=O)NS(=O)(=O)c1ccc(C)cc1 [TOLBUTAMIDE] | 0.0002 mL/min/kg |  |  | 0.99 |  |  | 
COc1ccc(C(CN(C)C)C2(O)CCCCC2)cc1 (stereo not given) [VENLAFAXINE] | 0.6 mL/min/kg | 13.4 mL/min/kg | 0.42 |  |  |  | 
Nc1ccn([C@H]2CC[C@@H](CO)O2)c(=O)n1 [ZALCITABINE] | 4.5 mL/min/kg | 1.1 mL/min/kg |  | 0.95 |  |  | 
CC(=O)N[C@H]1[C@H]([C@H](O)[C@H](O)CO)OC(C(=O)O)=C[C@@H]1N=C(N)N [ZANAMIVIR] |  | 0.2 mL/min/kg | 0.03 |  |  |  | 
O=C1Cc2cc(CCN3CCN(c4nsc5ccccc45)CC3)c(Cl)cc2N1 [ZIPRASIDONE] | 0.1 mL/min/kg | 5 mL/min/kg |  |  | 1 L/kg |  | 
Cc1ccc(-c2nc3ccc(C)cn3c2CC(=O)N(C)C)cc1 [ZOLPIDEM] | 0.043 mL/min/kg | 4.3 mL/min/kg | 0.72 |  |  |  | 
